We go through one compound from patent US20240279191A1 (The General Hospital Corporation, priority 2021, published 2024).

pIC50: −log10 of the molar value.

The target in one assay is TEAD4 (Homo sapiens, UniProt Q15561). Nature of the assay: Inhibition of TEAD4 auto-palmitoylation in vitro.
Another assay deals with TEAD2 (Homo sapiens, UniProt Q15562). Nature of the assay: Inhibition of TEAD2 auto-palmitoylation in vitro.
Sequence of TEAD2 (Q15562 whole entry): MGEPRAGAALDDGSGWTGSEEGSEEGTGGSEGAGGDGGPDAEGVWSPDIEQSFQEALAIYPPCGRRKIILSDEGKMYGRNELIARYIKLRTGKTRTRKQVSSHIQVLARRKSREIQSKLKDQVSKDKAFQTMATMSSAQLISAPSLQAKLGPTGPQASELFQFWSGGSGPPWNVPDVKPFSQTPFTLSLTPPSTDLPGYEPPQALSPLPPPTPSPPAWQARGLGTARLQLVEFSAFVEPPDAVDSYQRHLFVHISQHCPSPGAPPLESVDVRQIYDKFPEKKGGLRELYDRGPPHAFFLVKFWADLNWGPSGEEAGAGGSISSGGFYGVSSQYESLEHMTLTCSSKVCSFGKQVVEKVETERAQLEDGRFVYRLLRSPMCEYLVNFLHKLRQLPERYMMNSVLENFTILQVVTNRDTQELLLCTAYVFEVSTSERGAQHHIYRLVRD

Sequence of TEAD4 (Q15561 whole entry, species assumed): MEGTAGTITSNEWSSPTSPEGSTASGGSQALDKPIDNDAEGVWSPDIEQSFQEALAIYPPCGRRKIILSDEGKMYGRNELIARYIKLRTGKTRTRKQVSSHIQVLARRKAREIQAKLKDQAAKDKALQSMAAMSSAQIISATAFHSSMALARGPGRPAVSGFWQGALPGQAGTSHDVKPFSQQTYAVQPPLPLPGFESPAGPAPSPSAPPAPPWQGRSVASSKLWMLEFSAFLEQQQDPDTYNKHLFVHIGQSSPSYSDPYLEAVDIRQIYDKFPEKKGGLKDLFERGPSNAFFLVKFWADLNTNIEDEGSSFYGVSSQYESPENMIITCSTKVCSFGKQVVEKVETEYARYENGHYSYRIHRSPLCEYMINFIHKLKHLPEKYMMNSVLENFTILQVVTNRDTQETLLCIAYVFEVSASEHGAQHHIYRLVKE

As usually defined, the pIC50 is −log10 of the IC50, conventionally taken in molar units. Read a low pIC50 as a high IC50. With `O=C(Nc1ccccc1)N1CCN(C(=O)c2cccc(OCCC3CCCCC3)c2)CC1` [TM2, 4-(3-(2-cyclohexylethoxy)benzoyl)-N-phenylpiperazine-1-carboxamide], the pIC50 at TEAD4 is 7.42; against TEAD2 it was 6.81.
